Measured values taken from US20150183748A1, “METHODS OF TREATMENT AND PREVENTION OF NEURODEGENERATIVE DISEASES AND DISORDERS” (Thomas Jefferson University, priority 2007, published 2015).
Entries after “also recorded” stand apart in the source; their conditions may differ.

System: DM/HC pig model
Assay: Diabetic/hypercholesterolemic (DM/HC) pig model: brain histology/IHC, weight and behaviour
Format: in vivo
Method: A diabetic/diabetic hypercholestrolemic pig model (DM/HC) was developed that mimics human-like atherosclerosis. Farm pigs weighing 25-30 kg and aged ˜4 months were made diabetic with a single intravenous injection of 125 mg/kg of streptozotocin (Sicor Pharmaceuticals, Irvine, Calif.). After stabilization for 1-2 weeks, the animals with elevated levels of plasma glucose (>150 mg/dl) were fed with atherogenic (high-fat) diet as shown in Table 1 (Animal Specialties, Quakertown, Pa.) to achieve a cholesterol level of approximately […] Maintenance of the cholesterol level was determined by method as shown in Table 2.
On days 1-2, animals were fed normal chow, followed by on days 3-14 animals were fed a diet of 0.5% cholesterol, 2% lard and on day 14, cholesterol levels were measured and the diet adjusted accordingly to increase to 2% cholesterol, 10% lard if cholesterol is <300 mg/dl. Following induction of DM/HC, cholesterol was measured until cholesterol levels are stable between 300 and 800 mg/dl, and following cholesterol stabilization, cholesterol was measured monthly. If cholesterol levels were unstable following initial stabilization phase, the diet of the animal was returned to the initial two-week measurement schedule. Monthly cholesterol levels were determined, including levels of total cholesterol, LDL, HDL, VLDL and triglycerides.
At one month after stabilization of cholesterol at 250-800 mg/d1, the animals were randomized into two experimental groups, DM/HC (hyperglycemia and hypercholesterolemia) group with no treatment and treatment group (10 mg/kg/day of SB-480848, also referred to as 1-(N-(2-(diethylamino)ethyl)-N-(4-(4-trifluoromethylphenyl)benzyl)-aminocarbonylmethyl)-2-(4-fluorobenzyl)thio-5,6-trimethylenepyrimidin-4-one). The animals were sacrificed at 6-month after the randomization. The animal protocol has been approved by the Institutional Animal Care and Use Committee of University of Pennsylvania.
Two diabetic/hypercholesterolemic groups were evaluated: 1. DM/HC group and 2. DM/HC animals receiving Lp-PLA2 inhibitors. The experiments included: the control group (DM/HC group—17 pigs) and the experimental group (DM/HC animals receiving LP-PLA2 inhibitors—20 pigs). In addition blood cholesterol levels were maintained between 300 and 800 mg/dl in experimental animals, this range having been determined to provide a better test model. Blood cholesterol levels were monitored in all animals on a bimonthly basis, as shown in Table 4 and adjustments were made to the fat content of the feed accordingly, as shown in Table 2. The cholesterol and lard percent were in the range of 0.5-2% and 10-25%, respectively, and all animals received feed that contained cholesterol and lard concentration within that range. Blood samples were obtained at baseline, 1 month, 3 months, and 6 months. Less than 1 ml/kg of blood were obtained each time. At the bimonthly blood cholesterol levels tests, levels of total cholesterol, LDL, HDL, VLDL and triglycerides, blood glucose, Lp-PLA2 and […] (PBMCs) were tested (see Table 4).
The animal number, selected to justify the minimum requirement for statistical validity were 2 groups of animals per experiment as follows: 1. Control group (n=17); Diabetic and hyperlipidemic; 2.
Domestic farm pigs, Yorkshire boars, ranging in weight between 25-35 kg were purchased from a local farm and placed in indoor housing under the care of a veterinarian. They were castrated 3-5 days in advance of the study start date. Test pigs were made diabetic by infusing one dose of streptozocin (125 mg/kg) IV in a period of 30 min. […] To avoid the possible onset of initial hypoglycemia, 20 g of glucose powder was added to the feed for the […]. The blood glucose was measured using a glucometer every day before feeding for the first 14 days and then once a week.
Test animals were housed separately from control animals to avoid inter-animal transfer of drug due to colcophagia. […]

[1] = DM/HC pigs, 10 mg/kg/day, brain IHC for pig immunoglobulin
[2] = DM/HC pigs, 10 mg/kg/day, observed during study period vs control non-treated animals

CCN(CC)CCN(Cc1ccc(-c2ccc(C(F)(F)F)cc2)cc1)C(=O)Cn1c(SCc2ccc(F)cc2)nc(=O)c2c1CCC2 [Lp-PLA2 inhibitor, 1-(N-(2-(diethylamino)ethyl)-N-(4-(4-trifluoromethylphenyl)benzyl)-aminocarbonylmethyl)-2-(4-fluorobenzyl)thio-5,6-trimethylenepyrimidin-4-one]
activation of glial cells (DM/HC pigs treated with Lp-PLA2 inhibitor, GFAP as marker): less activation of glial cells
Abeta42 accumulation in vascular SMCs (cerebrovascular amyloidosis) (DM/HC pigs, 10 mg/kg/day, Abeta-42 immunostaining of arterioles): little or no arterial Abeta-42 immunostaining; also recorded: prevented Abeta42 accumulation in vascular SMCs
Abeta-42 accumulation in neurons (immunoreactivity) (DM/HC pigs, 10 mg/kg/day, brain Abeta-42 immunostaining, n=6): immunonegative neurons for Abeta-42; also recorded: no neuronal Abeta-42 immunoreactivity
dendrite collapse (DM/HC pigs, 10 mg/kg/day, brain IHC): no dendrite collapse
Ig binding to neurons [1]: no Ig binding to neurons
Ig leakage from blood vessels [1]: Ig is confined to the lumen of the blood vessels; also recorded: no Ig leakage from blood vessels
DM/HC-induced BBB leakage (DM/HC pigs, 10 mg/kg/day, brain IHC for pig immunoglobulin, n=6): prevents BBB leakage; also recorded: negligible BBB leakage
sick neurons (DM/HC pigs, 10 mg/kg/day, compared with non-treated animals): rarely observed
activity in the cage [2]: increased activity in the cage
response to feeding and handling [2]: respond more alertly to feeding and handling
responsiveness to external stimuli [2]: more responsive to external stimuli
